Laboratory results reported in paper PMC8480901 (PLoS ONE, 2021).
Values joined by “and” are separate entries in the source; they are usually repeats but may differ in a detail not shown here. Identical values can stand only once.

Experiments:
[1] = tested on: TNF-α, IL-6, IL-1β, GM-CSF, CXCL-1, CXCL-2, CCL-2 and MMP-9 in lung tissue; assay: LPS-induced cytokines, chemokines and MMP-9 in mouse lung homogenates (Luminex, ELISA); settings: lung homogenate, LPS
[2] = tested on: LPS-induced lung neutrophilia; assay: LPS-induced lung neutrophilia: total and neutrophil cell counts in BALF; assay type: in vivo, BALB/c mice; settings: for Neutrophils in BALF: % reduction / Total cells/white blood cells in BALF: % reduction / Neutrophils in BALF, Mean / Total cells/white blood cells in BALF, Mean / Neutrophils in BALF, individual mice / Total cells/white blood cells in BALF, individual mice: Experiment 1, LPS; for Neutrophils in BALF, Mean / Total cells/white blood cells in BALF, Mean / Neutrophils in BALF, individual mice / Total cells/white blood cells in BALF, individual mice: BALF 4 h after LPS; for Neutrophils in BALF, individual mice / Total cells/white blood cells in BALF, individual mice: listed as Azi
Procedure: Six-week-old male BALB/c mice (Charles River, Calco, Italy) were singly housed in a temperature-controlled (22°C±2°C) environment with a 12:12-hour light:dark cycle and free access to food and water. Mice were given ≥7 days for acclimation before all procedures. […] One day before the start of experimental procedures, all animals were randomized into 6 groups (n = 8/group). Animal group assignment was not blinded.
LPS lyophilized powder (2 mg; Sigma-Aldrich Chemie GmbH, Munich, Germany) from Escherichia coli (O111:B4) was dissolved in 10 mL cold saline (0.9%; Pliva, Zagreb, Croatia), vortexed, and further diluted by mixing 2 mL of this solution with 2 mL saline to reach a final concentration of 5 μg LPS/50 μL saline. […] Ketamine hydrochloride (Narketan 10) was acquired from Vetoquinol (Bern, Switzerland), and xylazine hydrochloride (Rompun, 2%) was acquired from Bayer (Leverkusen, Germany).
To induce pulmonary neutrophilia, mice in the control group received intranasal (IN) 50 μL saline, and all other animals received 5 μg LPS/50 μL saline IN per mouse.
Tracheostomy was performed, and a Buster cat catheter (1.0 × 130 mm; Kruuse, Langeskov, Denmark), shortened to 3 cm, was clamped into the trachea. The lungs were washed 3 times with cold phosphate-buffered saline (PBS; Sigma-Aldrich Chemie GmbH) in a total volume of 1 mL (0.4, 0.3, and 0.3 mL). The collected BALF samples were centrifuged (1303×g, 5 min, 4°C), and resulting cell pellets were each resuspended in 600 μL PBS. Samples were immediately analyzed for total and differential neutrophil cell counts via automated hematology analyzer (XT-2000iV; Sysmex, Kobe, Japan).
Differences between treated versus vehicle groups were determined using the Mann-Whitney test and were considered statistically significant when P<0.05. Outliers in the analysis of cytokine and chemokine concentrations were identified using the Grubbs test. No criteria were set for inclusion/exclusion of animals during the experiment or data points during the analysis.

human PBMCs = assay: Cytotoxicity in human PBMCs (adenylate kinase release, ToxiLight); assay type: cell-based; settings: PBMCs; ≤100 μM
Procedure: The effect of t est compounds on cell viabilit y of J 774.2 macrophages and human PBMCs […]
was determined b y comp aring th e aden yl ate kinas e signal obtain ed in the p resence of diff er ent concentrations of compounds with those obtained in DMSO (vehicle) control. Signals were […]
divided,and the results were ex pressed as fold-change versus v ehicle con trol .

[3] = tested on: LPS-induced acute lung injury; settings: pretreatment in LPS-induced acute lung injury models; cited from earlier work
[4] = 100 mg/kg, individual animal, listed as Azi

Question: What does the source list for `CC[C@H]1OC(=O)[C@H](C)[C@@H](O[C@H]2C[C@@](C)(OC)[C@@H](O)[C@H](C)O2)[C@H](C)[C@@H](O[C@@H]2O[C@H](C)C[C@H](N(C)C)[C@H]2O)[C@](C)(O)C[C@@H](C)CN(C)[C@H](C)[C@@H](O)[C@]1(C)O` [Azithromycin]?
Answer: GM-CSF Mean ([1]; 30 mg/kg, mean of 8): 60 pg/mL; IL-1β Mean ([1]; 30 mg/kg, mean of 8): 9669 pg/mL; IL-6 Mean ([1]; 30 mg/kg, mean of 8): 306 pg/mL; MMP9, Mean ([1]; 30 mg/kg, mean of 8): 1925 pg/mL; TNFα Mean ([1]; 30 mg/kg, mean of 8): 245 pg/mL; CCL2 % reduction ([1]; 100 mg/kg): 80%; CXCL1 % reduction ([1]; 100 mg/kg): 24%; CXCL2 % reduction ([1]; 100 mg/kg): 11%; GM-CSF % reduction ([1]; 100 mg/kg): 67%; IL-1β % reduction ([1]; 100 mg/kg): 12%; IL-6 % reduction ([1]; 100 mg/kg): 8%; MMP9 % reduction ([1]; 100 mg/kg): 24%; TNFα % reduction ([1]; 100 mg/kg): 36%; CCL2 [1, 4]: 3799.67 pg/mL and 664.18 pg/mL and 1172.90 pg/mL and 962.12 pg/mL and 765.59 pg/mL and 1437.03 pg/mL and 877.71 pg/mL and 698.62 pg/mL; CXCL1 [1, 4]: 20237.00 pg/mL and 6969.24 pg/mL and 8733.13 pg/mL and 8755.54 pg/mL and 6380.45 pg/mL and 8935.00 pg/mL and 8591.33 pg/mL and 8085.43 pg/mL; CXCL2 [1, 4]: 18077.64 pg/mL and 6817.72 pg/mL and 11394.66 pg/mL and 9108.54 pg/mL and 6682.24 pg/mL and 11221.65 pg/mL and 9678.57 pg/mL and 10364.59 pg/mL; GM-CSF [1, 4]: 162.70 pg/mL and 67.71 pg/mL and 85.13 pg/mL and 72.93 pg/mL and 64.24 pg/mL and 90.38 pg/mL and 45.24 pg/mL; IL-1β [1, 4]: 6686 pg/mL and 8985 pg/mL and 9690 pg/mL and 9020 pg/mL and 8022 pg/mL and 10797 pg/mL and 10826 pg/mL and 12960 pg/mL; IL-6 [1, 4]: 2378.14 pg/mL and 464.36 pg/mL and 635.80 pg/mL and 669.91 pg/mL and 567.42 pg/mL and 703.95 pg/mL and 884.75 pg/mL and 1176.18 pg/mL; MMP9 [1, 4]: 1836 pg/mL and 1554 pg/mL and 2200 pg/mL and 2220 pg/mL and 2073 pg/mL and 2366 pg/mL and 1528 pg/mL and 2063 pg/mL; TNFα [1, 4]: 660.88 pg/mL and 1126.83 pg/mL and 249.05 pg/mL and 935.87 pg/mL and 855.56 pg/mL and 270.54 pg/mL and 656.01 pg/mL and 675.49 pg/mL; CCL2 Mean ([1]; 100 mg/kg, mean of 8): 1297 pg/mL; CXCL1, Mean ([1]; 100 mg/kg, mean of 8): 9586 pg/mL; CXCL2, Mean ([1]; 100 mg/kg, mean of 8): 10418 pg/mL; GM-CSF Mean ([1]; 100 mg/kg, mean of 8): 83 pg/mL; IL-1β Mean ([1]; 100 mg/kg, mean of 8): 9623 pg/mL; IL-6 Mean ([1]; 100 mg/kg, mean of 8): 935 pg/mL; MMP9, Mean ([1]; 100 mg/kg, mean of 8): 1980 pg/mL; TNFα Mean ([1]; 100 mg/kg, mean of 8): 679 pg/mL; total cell and neutrophil recruitment to the lungs (measured in BALF) ([2]; 10, 30, and 100 mg/kg SC 30 min before intranasal LPS, 4 hours postchallenge, vs vehicle control): significant dose-dependent reductions; Neutrophils in BALF: % reduction ([2]; 10 mg/kg SC): 42%; Total cells/white blood cells in BALF: % reduction ([2]; 10 mg/kg SC): 68%; Neutrophils in BALF, Mean ([2]; 10 mg/kg SC): 3e+08 L⁻¹; Total cells/white blood cells in BALF, Mean ([2]; 10 mg/kg SC): 4.4e+08 L⁻¹; Neutrophils in BALF, individual mice ([2]; 10 mg/kg SC, 10 mg/kg): 3.8e+08 L⁻¹ and 3.6e+08 L⁻¹ and 3e+08 L⁻¹ and 2.9e+08 L⁻¹ and 2.7e+08 L⁻¹ and 8e+07 L⁻¹ and 3.4e+08 L⁻¹; Total cells/white blood cells in BALF, individual mice ([2]; 10 mg/kg SC, 10 mg/kg): 1.5e+08 L⁻¹ and 4.9e+08 L⁻¹ and 5.5e+08 L⁻¹ and 6.2e+08 L⁻¹ and 3.6e+08 L⁻¹ and 5.1e+08 L⁻¹ and 3.8e+08 L⁻¹; Neutrophils in BALF: % reduction ([2]; 30 mg/kg SC): 45%; Total cells/white blood cells in BALF: % reduction ([2]; 30 mg/kg SC): 71%; Neutrophils in BALF, Mean ([2]; 30 mg/kg SC): 2.9e+08 L⁻¹; Total cells/white blood cells in BALF, Mean ([2]; 30 mg/kg SC): 4.4e+08 L⁻¹; Neutrophils in BALF, individual mice ([2]; 30 mg/kg SC, 30 mg/kg): 2.5e+08 L⁻¹ and 5.9e+08 L⁻¹ and 2.3e+08 L⁻¹ and 2.1e+08 L⁻¹ and 4.6e+08 L⁻¹ and 1.7e+08 L⁻¹ and 2e+08 L⁻¹; Total cells/white blood cells in BALF, individual mice ([2]; 30 mg/kg SC, 30 mg/kg): 2.5e+08 L⁻¹ and 3.1e+08 L⁻¹ and 4.1e+08 L⁻¹ and 8.2e+08 L⁻¹ and 4.6e+08 L⁻¹ and 3.8e+08 L⁻¹ and 5.6e+08 L⁻¹; Neutrophils in BALF: % reduction ([2]; 100 mg/kg SC): 57%; Total cells/white blood cells in BALF: % reduction ([2]; 100 mg/kg SC): 95%; Neutrophils in BALF, Mean ([2]; 100 mg/kg SC): 2.3e+08 L⁻¹; Total cells/white blood cells in BALF, Mean ([2]; 100 mg/kg SC): 3.7e+08 L⁻¹; Neutrophils in BALF, individual mice ([2]; 100 mg/kg SC, 100 mg/kg): 3.6e+08 L⁻¹ and 2.2e+08 L⁻¹ and 1.7e+08 L⁻¹ and 1.3e+08 L⁻¹ and 3.4e+08 L⁻¹ and 2.5e+08 L⁻¹ and 1.5e+08 L⁻¹ and 1.9e+08 L⁻¹; Total cells/white blood cells in BALF, individual mice ([2]; 100 mg/kg SC, 100 mg/kg): 2.8e+08 L⁻¹ and 3.1e+08 L⁻¹ and 4.9e+08 L⁻¹ and 3.6e+08 L⁻¹ and 4.4e+08 L⁻¹ and 2.2e+08 L⁻¹ and 5.2e+08 L⁻¹ and 3.3e+08 L⁻¹; cytotoxic effects (human PBMCs): no cytotoxic effects; neutrophil recruitment [3]: significantly reduced
